Test results published in PubChem BioAssay AID1918933 (Molecular Pharmacology Branch, DTP, NCI, 2023).

Test system: 186277-243-T-J2-PDC complex spheroid viability
Experiment: Anticancer human tumor 186277-243-T-J2-PDC patient-derived colon adenocarcinoma cell line growth inhibition
Details: for IC50: curve of first compound; for viability, T/C: stronger effect = lower value
Method in brief: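 Drug combinations with the LSD1 inhibitor iadademstat tested on tumor cells co-cultured as spheroids with endothelial cells and mesenchymal stem cells. Concentrations descended in half-log increments from clinical Cmax or 10 microM.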

[1] = second compound 0.1 µM, first compound 0.0316 µM
[2] = second compound 0.1 µM, first compound 0.1 µM
[3] = second compound 0.1 µM, first compound 0.316 µM
[4] = second compound 0.1 µM, first compound 1 µM
[5] = second compound 0.1 µM, first compound 3.16 µM
[6] = second compound 0.1 µM, first compound 10 µM
[7] = second compound 0.316 µM, first compound 0.0316 µM
[8] = second compound 0.316 µM, first compound 0.1 µM
[9] = second compound 0.316 µM, first compound 0.316 µM
[10] = second compound 0.316 µM, first compound 1 µM
[11] = second compound 0.316 µM, first compound 3.16 µM
[12] = second compound 0.316 µM, first compound 10 µM
[13] = second compound 1 µM, first compound 0.0316 µM
[14] = second compound 1 µM, first compound 0.1 µM
[15] = second compound 1 µM, first compound 0.316 µM
[16] = second compound 1 µM, first compound 1 µM
[17] = second compound 1 µM, first compound 3.16 µM
[18] = second compound 1 µM, first compound 10 µM
[19] = second compound 3.16 µM, first compound 0.0316 µM
[20] = second compound 3.16 µM, first compound 0.1 µM
[21] = second compound 3.16 µM, first compound 0.316 µM
[22] = second compound 3.16 µM, first compound 1 µM
[23] = second compound 3.16 µM, first compound 3.16 µM
[24] = second compound 3.16 µM, first compound 10 µM
[25] = second compound 10 µM, first compound 0.0316 µM
[26] = second compound 10 µM, first compound 0.1 µM
[27] = second compound 10 µM, first compound 0.316 µM
[28] = second compound 10 µM, first compound 1 µM
[29] = second compound 10 µM, first compound 3.16 µM
[30] = second compound 10 µM, first compound 10 µM
[31] = second compound 0.1 µM, first compound 0.00949 µM
[32] = second compound 0.1 µM, first compound 0.03 µM
[33] = second compound 0.1 µM, first compound 0.0949 µM
[34] = second compound 0.1 µM, first compound 0.3 µM
[35] = second compound 0.316 µM, first compound 0.00949 µM
[36] = second compound 0.316 µM, first compound 0.03 µM
[37] = second compound 0.316 µM, first compound 0.0949 µM
[38] = second compound 0.316 µM, first compound 0.3 µM
[39] = second compound 1 µM, first compound 0.00949 µM
[40] = second compound 1 µM, first compound 0.03 µM
[41] = second compound 1 µM, first compound 0.0949 µM
[42] = second compound 1 µM, first compound 0.3 µM
[43] = second compound 3.16 µM, first compound 0.00949 µM
[44] = second compound 3.16 µM, first compound 0.03 µM
[45] = second compound 3.16 µM, first compound 0.0949 µM
[46] = second compound 3.16 µM, first compound 0.3 µM
[47] = second compound 10 µM, first compound 0.00949 µM
[48] = second compound 10 µM, first compound 0.03 µM
[49] = second compound 10 µM, first compound 0.0949 µM
[50] = second compound 10 µM, first compound 0.3 µM
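Further: 7 day exposure to compounds.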
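Wherever viability, T/C is given: 100% = DMSO vehicle control viability.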

CC1(C)CCC(CN2CCN(c3ccc(C(=O)NS(=O)(=O)c4ccc(NCC5CCOCC5)c([N+](=O)[O-])c4)c(Oc4cnc5[nH]ccc5c4)c3)CC2)=C(c2ccc(Cl)cc2)C1 + NC1CCC(NC2CC2c2ccccc2)CC1
IC50 (second compound 0.1 µM): 4910 nM
IC50 (second compound 0.316 µM): 4970 nM
IC50 (second compound 1 µM): 5120 nM
IC50 (second compound 3.16 µM): 5040 nM
IC50 (second compound 10 µM): 4570 nM
viability, T/C [1]: 92%
viability, T/C [2]: 114%
viability, T/C [3]: 101%
viability, T/C [4]: 97.7%
viability, T/C [5]: 73.5%
viability, T/C [6]: 12%
viability, T/C [7]: 106%
viability, T/C [8]: 117%
viability, T/C [9]: 99.4%
viability, T/C [10]: 109%
viability, T/C [11]: 74.9%
viability, T/C [12]: 11.5%
viability, T/C [13]: 100%
viability, T/C [14]: 105%
viability, T/C [15]: 106%
viability, T/C [16]: 101%
viability, T/C [17]: 77.9%
viability, T/C [18]: 11.3%
viability, T/C [19]: 107%
viability, T/C [20]: 107%
viability, T/C [21]: 115%
viability, T/C [22]: 95.8%
viability, T/C [23]: 79.2%
viability, T/C [24]: 8.73%
viability, T/C [25]: 98.9%
viability, T/C [26]: 107%
viability, T/C [27]: 96.6%
viability, T/C [28]: 97.6%
viability, T/C [29]: 69.1%
viability, T/C [30]: 9.39%

CC1COCCN1c1cc(C2(S(C)(=N)=O)CC2)nc(-c2ccnc3[nH]ccc23)n1 (stereo not given) + NC1CCC(NC2CC2c2ccccc2)CC1
IC50 (second compound 0.1 µM): 438 nM
IC50 (second compound 0.316 µM): 457 nM
IC50 (second compound 1 µM): 440 nM
IC50 (second compound 3.16 µM): 517 nM
IC50 (second compound 10 µM): 533 nM
viability, T/C [1]: 123%
viability, T/C [2]: 108%
viability, T/C [3]: 63%
viability, T/C [4]: 17.9%
viability, T/C [5]: 10.8%
viability, T/C [6]: 6.11%
viability, T/C [7]: 117%
viability, T/C [8]: 115%
viability, T/C [9]: 65.1%
viability, T/C [10]: 17.7%
viability, T/C [11]: 11%
viability, T/C [12]: 7.27%
viability, T/C [13]: 118%
viability, T/C [14]: 112%
viability, T/C [15]: 62.8%
viability, T/C [16]: 17.5%
viability, T/C [17]: 11.1%
viability, T/C [18]: 6.95%
viability, T/C [19]: 122%
viability, T/C [20]: 123%
viability, T/C [21]: 71.3%
viability, T/C [22]: 21.8%
viability, T/C [23]: 11.5%
viability, T/C [24]: 7.92%
viability, T/C [25]: 115%
viability, T/C [26]: 123%
viability, T/C [27]: 71%
viability, T/C [28]: 26.1%
viability, T/C [29]: 16.7%
viability, T/C [30]: 9.23%

CCN(c1cc(-c2ccc(CN3CCOCC3)cc2)cc(C(=O)NCc2c(C)cc(C)[nH]c2=O)c1C)C1CCOCC1 + NC1CCC(NC2CC2c2ccccc2)CC1
IC50 (second compound 0.1 µM): > 3000 nM
IC50 (second compound 0.316 µM): > 3000 nM
IC50 (second compound 1 µM): > 3000 nM
IC50 (second compound 3.16 µM): > 3000 nM
IC50 (second compound 10 µM): > 3000 nM
viability, T/C [31]: 108%
viability, T/C [32]: 94%
viability, T/C [33]: 108%
viability, T/C [34]: 116%
viability, T/C (second compound 0.1 µM, first compound 0.949 µM): 105%
viability, T/C (second compound 0.1 µM, first compound 3 µM): 110%
viability, T/C [35]: 112%
viability, T/C [36]: 102%
viability, T/C [37]: 110%
viability, T/C [38]: 112%
viability, T/C (second compound 0.316 µM, first compound 0.949 µM): 113%
viability, T/C (second compound 0.316 µM, first compound 3 µM): 113%
viability, T/C [39]: 122%
viability, T/C [40]: 121%
viability, T/C [41]: 108%
viability, T/C [42]: 111%
viability, T/C (second compound 1 µM, first compound 0.949 µM): 111%
viability, T/C (second compound 1 µM, first compound 3 µM): 102%
viability, T/C [43]: 110%
viability, T/C [44]: 115%
viability, T/C [45]: 107%
viability, T/C [46]: 117%
viability, T/C (second compound 3.16 µM, first compound 0.949 µM): 121%
viability, T/C (second compound 3.16 µM, first compound 3 µM): 111%
viability, T/C [47]: 105%
viability, T/C [48]: 94.8%
viability, T/C [49]: 95.9%
viability, T/C [50]: 107%
viability, T/C (second compound 10 µM, first compound 0.949 µM): 109%
viability, T/C (second compound 10 µM, first compound 3 µM): 98.3%

Nc1ncn(C2CC(O)C(CO)S2)c(=O)n1 (stereo not given) + NC1CCC(NC2CC2c2ccccc2)CC1
IC50 (second compound 0.1 µM): 77.6 nM
IC50 (second compound 0.316 µM): 74 nM
IC50 (second compound 1 µM): 72.4 nM
IC50 (second compound 3.16 µM): 75.3 nM
IC50 (second compound 10 µM): 89 nM
viability, T/C (second compound 0.1 µM, first compound 0.000949 µM): 125%
viability, T/C (second compound 0.1 µM, first compound 0.003 µM): 126%
viability, T/C [31]: 132%
viability, T/C [32]: 107%
viability, T/C [33]: 38.1%
viability, T/C [34]: 9.48%
viability, T/C (second compound 0.316 µM, first compound 0.000949 µM): 108%
viability, T/C (second compound 0.316 µM, first compound 0.003 µM): 129%
viability, T/C [35]: 123%
viability, T/C [36]: 105%
viability, T/C [37]: 34.9%
viability, T/C [38]: 10.6%
viability, T/C (second compound 1 µM, first compound 0.000949 µM): 115%
viability, T/C (second compound 1 µM, first compound 0.003 µM): 125%
viability, T/C [39]: 146%
viability, T/C [40]: 90%
viability, T/C [41]: 40.3%
viability, T/C [42]: 11.5%
viability, T/C (second compound 3.16 µM, first compound 0.000949 µM): 119%
viability, T/C (second compound 3.16 µM, first compound 0.003 µM): 132%
viability, T/C [43]: 140%
viability, T/C [44]: 109%
viability, T/C [45]: 35.7%
viability, T/C [46]: 12.7%
viability, T/C (second compound 10 µM, first compound 0.000949 µM): 118%
viability, T/C (second compound 10 µM, first compound 0.003 µM): 125%
viability, T/C [47]: 144%
viability, T/C [48]: 112%
viability, T/C [49]: 46.9%
viability, T/C [50]: 13.3%

O=C(C=Cn1cnc(-c2cc(C(F)(F)F)cc(C(F)(F)F)c2)n1)NNc1cnccn1 + NC1CCC(NC2CC2c2ccccc2)CC1
IC50 (second compound 0.1 µM): 16.6 nM
IC50 (second compound 0.316 µM): 18.6 nM
IC50 (second compound 1 µM): 17 nM
IC50 (second compound 3.16 µM): 18.2 nM
IC50 (second compound 10 µM): 16.8 nM
viability, T/C (second compound 0.1 µM, first compound 0.00316 µM): 98.7%
viability, T/C (second compound 0.1 µM, first compound 0.01 µM): 73.7%
viability, T/C [1]: 19.7%
viability, T/C [2]: 5.58%
viability, T/C [3]: 3.09%
viability, T/C [4]: 0.76%
viability, T/C (second compound 0.316 µM, first compound 0.00316 µM): 98.9%
viability, T/C (second compound 0.316 µM, first compound 0.01 µM): 83.6%
viability, T/C [7]: 20.9%
viability, T/C [8]: 10.7%
viability, T/C [9]: 3.03%
viability, T/C [10]: 2.56%
viability, T/C (second compound 1 µM, first compound 0.00316 µM): 91.4%
viability, T/C (second compound 1 µM, first compound 0.01 µM): 76.3%
viability, T/C [13]: 19.3%
viability, T/C [14]: 7.63%
viability, T/C [15]: 3.96%
viability, T/C [16]: 0.59%
viability, T/C (second compound 3.16 µM, first compound 0.00316 µM): 121%
viability, T/C (second compound 3.16 µM, first compound 0.01 µM): 83.3%
viability, T/C [19]: 19.2%
viability, T/C [20]: 5.56%
viability, T/C [21]: 5.32%
viability, T/C [22]: 0.63%
viability, T/C (second compound 10 µM, first compound 0.00316 µM): 131%
viability, T/C (second compound 10 µM, first compound 0.01 µM): 76.8%
viability, T/C [25]: 17.3%
viability, T/C [26]: 4.86%
viability, T/C [27]: 3.33%
viability, T/C [28]: 0.57%
